# Structures can show the parent of a compound that is named as a salt.
# What was measured:
# S. aureus biofilms = settings: cited from earlier work
# planktonic MRSA = test: Time-killing test on planktonic MRSA in stationary phase; type: cell-based, Methicillin-resistant S. aureus (MRSA) USA300; settings: 10 mg mL^−1 VAN, 4-day incubation
# Description: MRSA bacteria was cultured in LB media in a 37° C. water shaking bath overnight to reach the concentration of 1×10^8 CFU mL^−1. Then, they were diluted to 10^5 CFU mL^−1 in 96-well plates by adding different concentrations of VAN solutions. After incubation for 24 hours without shaking, MIC of VAN to inhibit MRSA growth was measured by a Biotek Synergy H1 hybrid multi-mode microplate reader (BioTek, Winooski, Vt., USA) at OD600. To evaluate the killing time of VAN to bacteria in stationary phase (1×10^8 CFU mL^−1), VAN powder was added to bacteria solution to obtain concentration of 1 mg mL^−1, 3 mg mL^−1, 5 mg mL^−1, and 10 mg mL^−1, respectively, while remaining MRSA concentration of 1×10^8 CFU mL^−1. After incubation in a 37° C. water bath for 1 day, 2 days, 3 days and 4 days, the CFU of MRSA cells was tested by the standard plate spread counting assay, respectively. The time-killing tests of DAP with different concentrations (0.1 mg mL^−1, 0.5 mg mL^−1, 1 mg mL^−1, and 5 mg mL^−1) on MRSA planktonic cells were also performed, with the incubation time up to 24 hours.
# HaCaT cells = test: Cell toxicity of high concentration of antibiotics, LIVE/DEAD stain; type: cell-based, human; settings: 4.5 mg mL^−1 VAN, 48 hour incubation
# Description: (§1) To evaluate the cell toxicity of the high concentration of antibiotics, HaCaT cells and HDFa cells were used. 2×10^4 HaCat cells and 2×10^3 HDFa cells were seeded in each well of a 96-well plate. After being cultured in an incubator under 37° C. and 5% CO2 for 24 hours, 4.5 mg mL^−1 VAN and 20 mg mL^−1 DAP were added to the culture media, respectively. Both HaCat cells and HDFa cells were treated by VAN for two days, and exposed to DAP for one day, respectively. The cell toxicity of the two cells at the end time points were evaluated by LIVE/DEAD stain and visualized by a confocal laser scanning microscope (CLSM, LSM 710, Zeiss, Germany).
# HDFa cells = test: as above; type: cell-based, human; settings: 4.5 mg mL^−1 VAN, 48 hour incubation
# Description: as §1
# [1] = conventional transdermal iontophoresis 0.31 mA cm^−2; cited from earlier work
# [2] = 0.3 mA cm^−2 for 4 hours; cited from earlier work
smiles,measurement,setting,value
"CN[C@H](CC(C)C)C(=O)N[C@H]1C(=O)N[C@@H](CC(N)=O)C(=O)N[C@H]2C(=O)N[C@H]3C(=O)N[C@H](C(=O)N[C@H](C(=O)O)c4cc(O)cc(O)c4-c4cc3ccc4O)[C@H](O)c3ccc(c(Cl)c3)Oc3cc2cc(c3O[C@@H]2O[C@H](CO)[C@@H](O)[C@H](O)[C@H]2O[C@H]2C[C@](C)(N)[C@H](O)[C@H](C)O2)Oc2ccc(cc2Cl)[C@H]1O [VAN, Vancomycin hydrochloride]",biofilm bacterial density reduction,S. aureus biofilms; 2 mA (0.17 mA cm^−2) for 24 hours with 32 μg mL^−1 vancomycin,1 log10 scale
same,antibacterial effect,S. aureus biofilms; vancomycin alone,no antibacterial effect
same,bacterial count after incubation (from 10^8 CFU g^−1),planktonic MRSA,10^6 CFU g^−1
same,viability of skin cells,HaCaT cells,not affected
same,viability of skin cells,HDFa cells,not affected
same,permeation coefficient (Pc),[1],2.21e+11 ×10⁻⁶ cm/s
same,amount delivered into the epidermis by iontophoresis vs passive diffusion,[2],2.1 times
